# Laboratory results as given in paper PMC11642016 (International Journal of Molecular Sciences, 2024).
# Where two headings read alike, the source gives them in different places.
# Legend:
# Fadu cells = assay: CellTiter-Glo luminescent cell viability assay, Fadu; details: 72 h, mean ± SD, n = 2; for Cell Viability (% of Control) 2.8 µM / Cell Viability (% of Control) 8.3 µM / Cell Viability (% of Control) 25 µM: Fadu; for viability at 2.8 µM / viability at 8.3 µM / viability at 25 µM: Homo sapiens, FaDu; for viability at 2.8 µM: read-out: Cell Viability (% of Control) 2.8 µM, Fadu; for viability at 8.3 µM: read-out: Cell Viability (% of Control) 8.3 µM, Fadu; for viability at 25 µM: read-out: Cell Viability (% of Control) 25 µM, Fadu
# PANC-1 cells = assay: CellTiter-Glo luminescent cell viability assay, PANC-1; details: 72 h, mean ± SD, n = 2; for Cell Viability (% of Control) 2.8 µM / Cell Viability (% of Control) 8.3 µM / Cell Viability (% of Control) 25 µM: PANC-1; for viability at 2.8 µM / viability at 8.3 µM / viability at 25 µM: Homo sapiens, PANC-1, 72 h; for viability at 2.8 µM: read-out: Cell Viability (% of Control) 2.8 µM, PANC-1; for viability at 8.3 µM: read-out: Cell Viability (% of Control) 8.3 µM, PANC-1; for viability at 25 µM: read-out: Cell Viability (% of Control) 25 µM, PANC-1
compound,measurement,setting,value
NCC#Cc1cccc(CN2C(=O)C3=C(CCN(Cc4cccc(-n5cc(-[c-]6cccc6)nn5)c4)C3)N3CCN=C23)c1.[Fe+2].c1cc[cH-]c1 [4a],Cell Viability (% of Control) 2.8 µM,Fadu cells; first-set screening,102 ± 1 % of Control
same,Cell Viability (% of Control) 8.3 µM,Fadu cells; first-set screening,77 ± 3 % of Control
same,Cell Viability (% of Control) 25 µM,Fadu cells; first-set screening,0 ± 0 % of Control
same,Cell Viability (% of Control) 2.8 µM,PANC-1 cells; first-set screening,91 ± 4 % of Control
same,Cell Viability (% of Control) 8.3 µM,PANC-1 cells; first-set screening,73 ± 9 % of Control
same,Cell Viability (% of Control) 25 µM,PANC-1 cells; first-set screening,0 ± 0 % of Control
O=C1C2=C(CCN(Cc3cccc(-n4cc(-c5ccccc5)nn4)c3)C2)N2CCN=C2N1Cc1cccc(C#CCO)c1 [4d],viability at 2.8 µM,Fadu cells; first-set screening,37 ± 1%
same,viability at 8.3 µM,Fadu cells; first-set screening,27 ± 3%
same,viability at 25 µM,Fadu cells; first-set screening,23 ± 3%
same,viability at 2.8 µM,PANC-1 cells; first-set screening,74 ± 3%
same,viability at 8.3 µM,PANC-1 cells; first-set screening,60 ± 2%
same,viability at 25 µM,PANC-1 cells; first-set screening,53 ± 8%
O=C1C2=C(CCN(Cc3ccc(-n4cc(-c5ccccc5)nn4)cc3)C2)N2CCN=C2N1Cc1ccc(F)cc1 [16f],viability at 2.8 µM,Fadu cells; first-set screening,100 ± 1%
same,viability at 8.3 µM,Fadu cells; first-set screening,94 ± 1%
same,viability at 25 µM,Fadu cells; first-set screening,77 ± 4%
same,viability at 2.8 µM,PANC-1 cells; first-set screening,81 ± 3%
same,viability at 8.3 µM,PANC-1 cells; first-set screening,68 ± 4%
same,viability at 25 µM,PANC-1 cells; first-set screening,60 ± 1%
NCC#Cc1cccc(CN2C(=O)C3=C(CCN(Cc4ccc(NC(=O)[c-]5cccc5)cc4)C3)N3CCN=C23)c1.[Fe+2].c1cc[cH-]c1 [23a],Cell Viability (% of Control) 2.8 µM,Fadu cells; second-set screening,109 ± 10 % of Control
same,Cell Viability (% of Control) 8.3 µM,Fadu cells; second-set screening,107 ± 7 % of Control
same,Cell Viability (% of Control) 25 µM,Fadu cells; second-set screening,61 ± 20 % of Control
same,Cell Viability (% of Control) 2.8 µM,PANC-1 cells; second-set screening,98 ± 7 % of Control
same,Cell Viability (% of Control) 8.3 µM,PANC-1 cells; second-set screening,104 ± 10 % of Control
same,Cell Viability (% of Control) 25 µM,PANC-1 cells; second-set screening,52 ± 55 % of Control
NCC#Cc1cccc(CN2C(=O)C3=C(CCN(Cc4ccc(NC(=O)c5ccccc5)cc4)C3)N3CCN=C23)c1 [23b],viability at 2.8 µM,Fadu cells; second-set screening,117 ± 11%
same,viability at 8.3 µM,Fadu cells; second-set screening,108 ± 7%
same,viability at 25 µM,Fadu cells; second-set screening,77 ± 6%
same,viability at 2.8 µM,PANC-1 cells; second-set screening,113 ± 15%
same,viability at 8.3 µM,PANC-1 cells; second-set screening,106 ± 5%
same,viability at 25 µM,PANC-1 cells; second-set screening,47 ± 39%
NCC#Cc1cccc(CN2C(=O)C3=C(CCN(Cc4ccc(C(=O)N[c-]5cccc5)cc4)C3)N3CCN=C23)c1.[Fe+2].c1cc[cH-]c1 [33a],Cell Viability (% of Control) 2.8 µM,Fadu cells; second-set screening,99 ± 2 % of Control
same,Cell Viability (% of Control) 8.3 µM,Fadu cells; second-set screening,93 ± 2 % of Control
same,Cell Viability (% of Control) 25 µM,Fadu cells; second-set screening,9 ± 8 % of Control
same,Cell Viability (% of Control) 2.8 µM,PANC-1 cells; second-set screening,102 ± 9 % of Control
same,Cell Viability (% of Control) 8.3 µM,PANC-1 cells; second-set screening,107 ± 9 % of Control
same,Cell Viability (% of Control) 25 µM,PANC-1 cells; second-set screening,4 ± 5 % of Control
NCC#Cc1cccc(CN2C(=O)C3=C(CCN(Cc4ccc(C(=O)Nc5ccccc5)cc4)C3)N3CCN=C23)c1 [33b],viability at 2.8 µM,Fadu cells; second-set screening,120 ± 9%
same,viability at 8.3 µM,Fadu cells; second-set screening,115 ± 6%
same,viability at 25 µM,Fadu cells; second-set screening,80 ± 11%
same,viability at 2.8 µM,PANC-1 cells; second-set screening,102 ± 9%
same,viability at 8.3 µM,PANC-1 cells; second-set screening,109 ± 5%
same,viability at 25 µM,PANC-1 cells; second-set screening,71 ± 32%
NCC#Cc1cccc(CN2C(=O)C3=C(CCN(Cc4ccc(-n5cc(-c6cccc(F)c6)nn5)cc4)C3)N3CCN=C23)c1 [36a],viability at 2.8 µM,Fadu cells; second-set screening,105 ± 20%
same,viability at 8.3 µM,Fadu cells; second-set screening,6 ± 5%
same,viability at 25 µM,Fadu cells; second-set screening,0%
same,viability at 2.8 µM,PANC-1 cells; second-set screening,116 ± 8%
same,viability at 8.3 µM,PANC-1 cells; second-set screening,0%
same,viability at 25 µM,PANC-1 cells; second-set screening,0%
NCC#Cc1cccc(CN2C(=O)C3=C(CCN(Cc4ccc(-n5cc(-c6ccc(F)cc6)nn5)cc4)C3)N3CCN=C23)c1 [36b],viability at 2.8 µM,Fadu cells; second-set screening,114 ± 7%
same,viability at 8.3 µM,Fadu cells; second-set screening,1 ± 1%
same,viability at 25 µM,Fadu cells; second-set screening,0%
same,viability at 2.8 µM,PANC-1 cells; second-set screening,116 ± 7%
same,viability at 8.3 µM,PANC-1 cells; second-set screening,0%
same,viability at 25 µM,PANC-1 cells; second-set screening,0%
NCC#Cc1cccc(CN2C(=O)C3=C(CCN(Cc4ccc(-n5cc(-c6cc(F)cc(F)c6)nn5)cc4)C3)N3CCN=C23)c1 [36c],viability at 2.8 µM,Fadu cells; second-set screening,111 ± 10%
same,viability at 8.3 µM,Fadu cells; second-set screening,5 ± 5%
same,viability at 25 µM,Fadu cells; second-set screening,0%
same,viability at 2.8 µM,PANC-1 cells; second-set screening,111 ± 8%
same,viability at 8.3 µM,PANC-1 cells; second-set screening,0%
same,viability at 25 µM,PANC-1 cells; second-set screening,0%
NCc1cccc(CN2C(=O)C3=C(CCN(Cc4ccc(-n5cc(-[c-]6cccc6)nn5)cc4)C3)N3CCN=C23)c1.[Fe+2].c1cc[cH-]c1 [37a],Cell Viability (% of Control) 2.8 µM,Fadu cells; second-set screening,106 ± 10 % of Control
same,Cell Viability (% of Control) 8.3 µM,Fadu cells; second-set screening,70 ± 20 % of Control
same,Cell Viability (% of Control) 25 µM,Fadu cells; second-set screening,0 ± 0 % of Control
same,Cell Viability (% of Control) 2.8 µM,PANC-1 cells; second-set screening,118 ± 4 % of Control
same,Cell Viability (% of Control) 8.3 µM,PANC-1 cells; second-set screening,123 ± 5 % of Control
same,Cell Viability (% of Control) 25 µM,PANC-1 cells; second-set screening,16 ± 8 % of Control
